Experimental data published in ChEMBL document CHEMBL1955861, “Aminoimidazoles as BACE-1 inhibitors: the challenge to achieve in vivo brain efficacy” (Bioorg Med Chem Lett, 2012).

Columns and labels:
[1] = Dissociation constant, pKa of the compound; assay type: physicochemical
[2] = Ratio of drug level in brain to plasma in C57BL/6 mouse at 300 umol/kg, po administered as single dose measured after […] by RPLC-MS/MS analysis; assay type: ADME, organism-based; conditions: read-out: BPR
[3] = Ratio of drug level in brain to plasma in C57BL/6 mouse at 300 umol/kg, po administered as single dose 15 mins after GF120918 90 umol/kg, po measured after […] by RPLC-MS/MS analysis; assay type: ADME, organism-based; conditions: with GF120918 90 umol/kg po, read-out: BPR
[4] = Drug uptake in C57BL/6 mouse brain at 300 umol/kg, po administered as single dose 15 mins after GF120918 90 umol/kg, po measured after […] by RPLC-MS/MS analysis; assay type: ADME, organism-based; conditions: with GF120918 90 umol/kg po, read-out: Drug uptake

| Compound | pKa [1] | also measured |
| --- | --- | --- |
| NC1=NC(c2ccncc2)(c2cccc(-c3cncnc3)c2)C2=NCCCN12 (centres undefined) | 7.6 |  |
| COc1cccc(-c2cccc([C@]3(c4ccncc4)N=C(N)N4CC(F)(F)CN=C43)c2)c1F | 5.3 |  |
| COc1ccc(C2(c3cccc(-c4cncnc4)c3)N=C(N)N3CC(F)(F)CN=C32)cc1 (centres undefined) | 6.8 |  |
| NC1=NC(c2ccc(OC(F)F)cc2)(c2cccc(-c3cncnc3)c2)C2=NCC(F)(F)CN12 (centres undefined) | 6.1 |  |
| COc1ccc(F)c(-c2cccc(C3(c4ccncc4)N=C(N)N4CC(F)(F)CN=C43)c2)c1 (centres undefined) | 5.9 |  |
| NC1=NC(c2ccc(OC(F)F)cc2)(c2cccc(OCCCF)c2)C2=NCC(F)(F)CN12 (centres undefined) | 6.5 |  |
| NC1=N[C@](c2ccc(OC(F)F)cc2)(c2cccc(OCCCF)c2)C2=NCC(F)(F)CN12 |  | Kp at […] [2]: 0.18; Kp at […] [3]: 2.34; concentration at […] [4]: 4 µM |
